According to patent publication US9499590B2, “Antibodies against and methods for producing vaccines for respiratory syncytial virus” (MEDIMMUNE, LLC, priority 2009, dated 2016):
Values joined by “and” are separate entries in the source; they are usually repeats but may differ in a detail not shown here. Equal values may be shown once.

B1: Numax ™: enhanced potency RSV-specific monoclonal antibody derived by in vitro affinity maturation of palivizumab (antibody, listed as Chimaera sp., V domains shown)
VH: QVTLRESGPALVKPTQTLTLTCTFSGFSLSTAGMSVGWIRQPPGKALEWLADIWWDDKKHYNPSLKDRLTISKDTSKNQVVLKVTNMDPADTATYYCARDMIFNFYFDVWGQGTTVTVSS
VL: DIQMTQSPSTLSASVGDRVTITCSASSRVGYMHWYQQKPGKAPKLLIYDTFFLDSGVPSRFSGSGSGTEFTLTISSLQPDDFATYYCFQGSGYPFTFGGGTKVEIK
modifications: (1)..(120) Humanized VH domain antibody sequence; (1)..(106) Humanized VL domain antibody sequence

Columns and labels:
Numax™ = assay: Biacore kinetic analysis of F peptides on captured Numax™; format: binding; details: F peptide 100 nM over captured Numax, HBS-EP
Experimental: All studies were performed using Sensor Chip CM5 (Biacore AB, Uppsala, Sweden) which contains a carboxymethyl (CM) dextran matrix and a Biacore®3000 surface plasmon resonance (SPR) biosensor (Biacore AB, Uppsala, Sweden).
Numax™ was captured via a high-affinity interaction between the Fc portion of Numax™ and a goat anti-human IgG(Fc) (KPL, Inc., Gaithersburg, Md.). Goat anti-human IgG(Fc) was covalently attached to the CM dextran matrix using amine coupling chemistry. Two anti-human IgG(Fc)-specific surfaces were created. Numax™ was diluted to 10.9 μg/mL with HBS-EP and flowed for 1 min. across one of the anti-human IgG (Fc) surfaces at a flow rate of 5 μL/min. The other anti-human IgG(Fc) surface was used as a reference surface. F peptide was prepared by dilution in HBS-EP (0.01 M Hepes pH 7.4, 0.15 M NaCl, 3 mM EDTA, 0.005% surfactant P20) to a final concentration of 100 nM. F peptide was injected for 1 min. in a serial-flow manner across the reference surface and the Numax™-specific surface. Dissociation of bound F peptide was monitored for 2 min in the presence of HBS-EP. After this dissociation period, Numax™ and F peptide were removed with a 30-sec injection of 10 mM glycine pH 1.7 (Biacore AB, Uppsala, Sweden). Because of the removal of Numax™, it was necessary to create a new Numax™-specific surface prior to the injection of each F peptide.

MEDI-524 Fab = MEDI-524 Fab (Homo sapiens, UniProt P01834+P01857); assay: Isothermal titration calorimetry (ITC) of F peptides with MEDI-524 Fab; format: binding; details: 18° C., 25 mM His, pH 6.07
Description: Isothermal Titration calorimetry assays (ITC) have been described (see, for example, Heerklotz H et al., Biophysical Journal, May 1999). Molecular interactions are defined by stoichiometry and a few thermodynamic parameters. All binding reactions are associated with the absorption or generation of heat. Therefore calorimetry is emerging as a premier tool for the characterisation of interactions of biological macromolecules. ITC is the only method that measures equilibrium constants, enthalpy and entropy in one single experiment. If the experiment is performed at different temperatures the important parameter, the heat capacity change, can be determined. ITC has become a standard method for investigating the binding of ligands to receptor molecules. Accordingly, ligands are mixed with receptors, and the subsequent heats of incorporation (or binding) are measured.
To obtain binding constants for MEDI-524 Mab and MEDI-524 Fab fragments with F peptides constructed from F protein sequences, ITC was performed.
For this set of experiments, […] (1.16 μM-148.4 KDa) of MEDI-524 Mab and 0.088 mg/mL (1.88 μM-46.3 KDa) of MEDI-524 Fab, both in 25 mM His, pH 6.07 were used. On the other hand, 250 μl of lmg/mL of the different peptides dissolved in H2O, were provided by ABC. The peptides were then diluted into the appropriate volume of buffer to give a final concentration of 50 μM. The ITC experiments were run at 18° C. with the macromolecule (Mab or Fab) in the cell, by doing ˜26 injections of 10 μL of peptides, spaced 360 sec with constant stirring. The data fitting was accomplished by subtracting the average value of the few last injections as the buffer and unspecific heat of dilution contributions. […] A note apart is the fact that the observed binding capacity (N) increases with the length of the peptide, indicating possibly an extra conformational factor in the binding event. The entropic contribution: For the peptides SEQ ID NOs.24 and 26, the entropic factor seems to be similar; the extra amino acids at the end of the N-terminal seem not to affect greatly the binding parameters. On the other hand, the elongation at the C-terminal seems to decrease slightly the binding enthalpy, the binding constant, as well as the entropic factor. The binding capacity seems to be increased in the cases where the 30-mer peptides were used (SEQ ID Nos. 25 and 26), when compare to the SEQ ID NO.24 peptide, possibly due to the longer extent of the whole peptides. The binding constant seems to be smaller (weaker) for both 30-mer peptides respect to the 26-mer.

RSV B9320 strain mutants = assay: Microneutralization assay of RSV B9320 strain F protein mutants; format: cell-based, respiratory syncytial virus
Description: (§1) Hep-2 cells were infected in 24 well plates with RSV (in some cases, the B9320 RSV strain) in the presence of an anti-RSV monoclonal antibody, such as, for instance, Synagis® (palivizumab) and/or Numax™ (motavizumab) or MEDI-524. The virus was passaged two to three more times in the continued presence of the monoclonal antibody. […] The resulting plaques were purified two times in the presence of the monoclonal antibody. The virus was expanded to produce virus stock in either the presence or absence of the monoclonal antibody. Analysis of susceptibility of the viral mutants to neutralization by Synagis® (palivizumab) and Numax™ (motavizumab) was performed by a microneutralization assay and/or IFA. Finally, the sequence of the mutant F protein was determined by standard methods. […] Antibody contact with residues 262, 268 and 272 appear important.

[1] = test system: RSV monoclonal antibody resistant mutants (MARMs); assay: Microneutralization assay of RSV monoclonal antibody resistant mutants (MARMs); format: cell-based, respiratory syncytial virus
Experimental: Neutralization assays have also been described (see, for example, Beller et al., 1989, J Virol 63: 2941-2950, which is incorporated herein by reference in its entirety). Briefly RSV is incubated in the presence of serial dilutions of the agent(s) to be tested (e.g., F peptide) for an appropriate period of time. The mixtures of virus-agent(s) are then transferred to cell monolayers and incubated for an appropriate period of time. Cells are subsequently examined microscopically for cytopathology. Microscopic observations can be confirmed by staining with a glutaraldehyde-crystal violet solution. Neutralization can be expressed as the reciprocal of the highest agent dilution which inhibited more then 95% of the viral cytopathic effect present in the control sample (RSV and cells alone)
as §1

RSV F protein = assay: Biacore kinetic analysis, Numax reference standard; format: binding, respiratory syncytial virus
Description: BIAcore analysis can measure the kinetic interactions of anti-RSV antibodies with RSV F peptides by surface plasmon resonance using a BIAcore 1000, 2000, or 3000 instrument (Biacore, Uppsala, Sweden). Purified recombinant, C-terminally truncated F protein was covalently coupled to a (1-ethyl-3-[3-dimethylaminopropyl]carbodiimide hydrochloride)/N-hydroxysuccinimide-activated CM5 sensor chip at a low protein density (see Johnsson et al. (1991) Anal. Biochem. 198, 268-277). The unreacted active ester groups were blocked with 1 M ethanolamine. For use as a reference, when the BIAcore 2000 or 3000 instrument was used, a blank surface, containing no antigen, was prepared under identical immobilization conditions. To minimize binding variations caused by different lots of F proteins, most of the antibodies were measured against the same lot of F protein. In several cases when different lots of F proteins were used, their binding to an anti-RSV antibody was used as a reference to make sure that these lots had similar binding characteristics to the lot that is used mainly. A serial 2-fold dilution series of purified antibodies, ranging from 0.2 to 100 nm in HBS/Tween 20 buffer (BIAcore), was injected over the F-protein and reference cell surfaces, which were connected in series. In each measurement, the residual antibody was removed from the sensor chip by a brief pulse of 100 mM HCl. The binding curves were globally fitted to a 1:1 Langmuir binding model using the BIAevaluation program. This algorithm calculates both kon and koff. The apparent equilibrium dissociation constant, Kd, was deduced as the ratio of the two rate constants, koff/kon.

[2] = K272N, K272Q or K272I, or double N268L + K272I
[3] = K272E, or double mutation N262Y + K272Q
[4] = MARM 45, K272Q, selection Numax
[5] = MARM 49-B12, K272N, selection Numax
[6] = MARM 63-B6, N268L + K272I, selection Numax
[7] = MARM 63-H2, K272I, selection Numax
[8] = MARM 65-B10, N262Y + K272Q, selection Numax
[9] = MARM 69-C8, K272E, selection Numax
[10] = MARM #10, K272E + N276Y, selection A4b4
[11] = MARM #13, N262K + K272Q, selection Synagis then A4b4
[12] = MARM B1, K272N, selection Synagis
[13] = MARM B2, K272M, selection Synagis
[14] = MARM B7, K272T, selection Synagis
[15] = MARM B9, K272Q, selection Synagis
[16] = MARM NuMARM3, K272E, selection Numax
[17] = all other mutations indicated at position 272

Chain of Numax™ (as listed by the source, one chain of several): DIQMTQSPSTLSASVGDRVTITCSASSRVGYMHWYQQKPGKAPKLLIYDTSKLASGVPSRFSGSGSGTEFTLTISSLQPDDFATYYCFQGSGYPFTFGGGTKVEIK
Chain of MEDI-524 Fab (P01857 with tags, fused parts or gaps limits assumed, other chains not shown): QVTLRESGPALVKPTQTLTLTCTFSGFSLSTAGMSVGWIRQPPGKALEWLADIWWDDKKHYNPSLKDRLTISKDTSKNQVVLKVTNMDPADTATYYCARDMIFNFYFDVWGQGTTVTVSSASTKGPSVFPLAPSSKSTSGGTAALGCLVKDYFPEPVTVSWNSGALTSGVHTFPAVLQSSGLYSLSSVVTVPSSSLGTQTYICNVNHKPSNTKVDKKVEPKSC

| Molecule | Kd (Numax™) | ka (Numax™) | kd (Numax™) | Ka (association constant) (MEDI-524 Fab) [M⁻¹] | ΔHbinding (MEDI-524 Fab) [kcal/mol] | ΔSbinding (MEDI-524 Fab) | Neutralization of RSV mutant (RSV B9320 strain mutants; [2]) | Neutralization of RSV mutant (RSV B9320 strain mutants; double mutation K272Q + N262K) | Neutralization of RSV mutant [1, 3] | Neutraliz by antibody? [1, 4] | Neutraliz by antibody? [1, 5] | Neutraliz by antibody? [1, 6] | Neutraliz by antibody? [1, 7] | Neutraliz by antibody? [1, 8] | Neutraliz by antibody? [1, 9] | Neutraliz by antibody? ([1]; MARM #6, K272E, selection A4b4) | Neutraliz by antibody? [1, 10] | Neutraliz by antibody? [1, 11] | Neutraliz by antibody? [1, 12] | Neutraliz by antibody? [1, 13] | also measured |
| --- | --- | --- | --- | --- | --- | --- | --- | --- | --- | --- | --- | --- | --- | --- | --- | --- | --- | --- | --- | --- | --- |
| NSELLSLINDMPITNDQKKLMSNNC [SEQ ID NO: 27] | 20.4 nM | 2.70E+05 | 5.50E−03 |  |  |  |  |  |  |  |  |  |  |  |  |  |  |  |  |  |  |
| NSELLSLIHDMPITNDQKKLMSNNVQIVRQ [SEQ ID NO: 25] | 7.23 nM and 5.44 nM | 2.50E+05 and 3.62E+05 | 1.81E−03 and 1.97E−03 | 6.5e+06 | -10.4 | −4.7 |  |  |  |  |  |  |  |  |  |  |  |  |  |  |  |
| NSELLSLINDMPITNDQKKLMSNN(X-orn)C [SEQ ID NO: 24] | 2.29 nM | 1.06E+05 | 2.42E−04 | 1.3e+07 | -12.8 | −11.4 |  |  |  |  |  |  |  |  |  |  |  |  |  |  |  |
| STYMLTNSELLSLIHDMPITNDQKKLMSNN [SEQ ID NO: 26] | 22.7 nM | 2.43E+05 | 5.52E−03 | 7.1e+06 | -11.4 | −8.1 |  |  |  |  |  |  |  |  |  |  |  |  |  |  |  |
| Synagis ®: humanized RSV monoclonal antibody directed against the F glycoprotein of RSV [reference compound] |  |  |  |  |  |  | lost its ability to neutralize RSV | lost their ability to neutralize | longer neutralized RSV | No | No | No | No | No | No | No | No | No | No | No | Neutraliz by antibody? [1, 14]: No; Neutraliz by antibody? [1, 15]: No; Neutraliz by antibody? [1, 16]: No; Neutralization of RSV mutant [1, 17]: eliminate the ability |
| B1 |  |  |  |  |  |  | retain its ability to neutralize RSV at higher concentration | lost their ability to neutralize | longer neutralized RSV | Yes at higher | Yes at higher | Yes at higher | Yes at higher | No | No | No | No | No | Yes | Yes | Neutralization of RSV mutant (RSV B9320 strain mutants; single mutant K272Q): did not knock out; Neutraliz by antibody? [1, 14]: Yes; Neutraliz by antibody? [1, 15]: Yes; Neutraliz by antibody? [1, 16]: No; Neutralization of RSV mutant [1, 17]: retain its ability to neutralize; Kd (RSV F protein): 0.004 nM; ka (RSV F protein): 4.70E+05; kd (RSV F protein): 1.88E−06 |
